Data published in article PMC5053523, “In Vitro Antibacterial Activity of Rhodanine Derivatives against Pathogenic Clinical Isolates” (PLoS ONE, 2016).
Values after ≈ are worked out from the molar mass of the structure shown. Like-named read-outs stand apart in the source and are kept apart here.

How the values were obtained:
Type in all cases: cell-based
[1] = system: vancomycin resistant enterococci (VRE); test: Broth microdilution MIC50/MIC90, VRE panel; conditions: Enterococcus, 10 VRE strains
[2] = system: Vancomycin Resistant Staphylococcus aureus (VRSA); test: Broth microdilution MIC/MBC, VRSA; conditions: for MBC / MIC: VRSA
Bacillus anthracis = test: microbe, parasite or virus in culture
B. cereus = test: Broth microdilution MIC/MBC, B. cereus; conditions: Bacillus cereus; for MBC: read-out: MBC; for MIC: read-out: MIC
Text: The broth microdilution technique was used, followed by subculturing on agar plates that were rhodanine—free.

B. licheniformis = test: Broth microdilution MIC/MBC, B. licheniformis; conditions: Bacillus licheniformis; for MBC: read-out: MBC; for MIC: read-out: MIC
Mycobacterium smegmatis = test: Broth microdilution MIC/MBC, Mycobacterium smegmatis; conditions: Mycolicibacterium smegmatis, ATCC14468, M. Smegmatis ATCC 14468
Acinetobacter baumannii [3] = test: Broth microdilution MIC, Acinetobacter baumannii
Escherichia coli O157:H7 [4] = test: MIC with/without sub-MIC colistin, Escherichia coli O157:H7
In short: (§1)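 Gram-negative MICs were determined for rhodanines alongside control antibiotics, each combined with sub-inhibitory colistin or PMBN. Further testing used the efflux-deficient E. coli SM1411ΔacrAB, missing the AcrAB multidrug pump.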

Salmonella Typhimurium [5] = test: MIC with/without sub-MIC colistin, Salmonella Typhimurium
In short: as §1

Klebsiella pneumoniae = test: MIC with/without sub-MIC colistin, Klebsiella pneumoniae
In short: as §1

Pseudomonas aeruginosa = test: MIC with/without sub-MIC colistin, Pseudomonas aeruginosa
In short: as §1

Acinetobacter baumannii [6] = test: MIC with/without PMBN, Acinetobacter baumannii
In short: as §1

Escherichia coli O157:H7 [7] = test: MIC with/without PMBN, Escherichia coli O157:H7
In short: as §1

Salmonella Typhimurium [8] = test: MIC with/without PMBN, Salmonella Typhimurium
In short: as §1

Escherichia coli Δ acrAB = test: MIC against E. coli 1411 and AcrAB efflux pump deficient E. coli SM1411Δ acrAB
In short: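 Rhodanines and control antibiotics are tested for MIC against Gram-negative bacteria while a sub-inhibitory level of colistin or PMBN is present. A strain of E. coli lacking the AcrAB efflux pump (SM1411ΔacrAB) serves as an additional test organism.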

[9] = NRS201, B. cereus NRS 201 NR-2488
[10] = NCIB9375, B. licheniformis Gibson 46 (NCIB 9375) NR-2494
[11] = NRS712, B. licheniformis NRS 712 NR-2499
[12] = Salmonella enterica, ATCC 700720 / TYPHIMURIUM

## O=C(O)[C@@H](Cc1ccccc1)N1C(=O)/C(=C/c2cccc(Oc3ccc(F)cc3)c2)SC1=S [Rh 4]
[1]; VRE, read-out: MIC 90
  MIC90: 32 µM (≈ 15.3 µg/mL)
[1]; read-out: MIC 50
  MIC50: 32 µM (≈ 15.3 µg/mL)
[2]; 15 VRSA strains, read-out: MIC 50
  MIC50: 16 µM (≈ 7.67 µg/mL)
[2]; 15 VRSA strains, read-out: MIC 90
  MIC90: 16 µM (≈ 7.67 µg/mL)
[2]; VRSA 1, read-out: MBC
  MBC: 64 µM (≈ 30.7 µg/mL)
[2]; VRSA 1, read-out: MIC
  MIC: 16 µM (≈ 7.67 µg/mL)
[2]; VRSA 2, read-out: MBC
  MBC: 16 µM (≈ 7.67 µg/mL)
[2]; VRSA 2, read-out: MIC
  MIC: 16 µM (≈ 7.67 µg/mL)
[2]; VRSA 3a, read-out: MBC
  MBC: 32 µM (≈ 15.3 µg/mL)
[2]; VRSA 3a, read-out: MIC
  MIC: 16 µM (≈ 7.67 µg/mL)
[2]; VRSA 3b, read-out: MBC
  MBC: 16 µM (≈ 7.67 µg/mL)
[2]; VRSA 3b, read-out: MIC
  MIC: 16 µM (≈ 7.67 µg/mL)
[2]; VRSA 4, read-out: MBC
  MBC: 64 µM (≈ 30.7 µg/mL)
[2]; VRSA 4, read-out: MIC
  MIC: 16 µM (≈ 7.67 µg/mL)
[2]; VRSA 5, read-out: MBC
  MBC: 32 µM (≈ 15.3 µg/mL)
[2]; VRSA 5, read-out: MIC
  MIC: 16 µM (≈ 7.67 µg/mL)
[2]; VRSA 6, read-out: MBC
  MBC: 32 µM (≈ 15.3 µg/mL)
[2]; VRSA 6, read-out: MIC
  MIC: 16 µM (≈ 7.67 µg/mL)
[2]; VRSA 7, read-out: MBC
  MBC: 32 µM (≈ 15.3 µg/mL)
[2]; VRSA 7, read-out: MIC
  MIC: 16 µM (≈ 7.67 µg/mL)
[2]; VRSA 8, read-out: MBC
  MBC: 32 µM (≈ 15.3 µg/mL)
[2]; VRSA 8, read-out: MIC
  MIC: 16 µM (≈ 7.67 µg/mL)
[2]; VRSA 9, read-out: MBC
  MBC: 32 µM (≈ 15.3 µg/mL)
[2]; VRSA 9, read-out: MIC
  MIC: 32 µM (≈ 15.3 µg/mL)
[2]; VRSA 10, read-out: MBC
  MBC: 32 µM (≈ 15.3 µg/mL)
[2]; VRSA 10, read-out: MIC
  MIC: 16 µM (≈ 7.67 µg/mL)
[2]; VRSA 11a, read-out: MBC
  MBC: 64 µM (≈ 30.7 µg/mL)
[2]; VRSA 11a, read-out: MIC
  MIC: 16 µM (≈ 7.67 µg/mL)
[2]; VRSA 11b, read-out: MBC
  MBC: 64 µM (≈ 30.7 µg/mL)
[2]; VRSA 11b, read-out: MIC
  MIC: 16 µM (≈ 7.67 µg/mL)
[2]; VRSA 12, read-out: MBC
  MBC: 64 µM (≈ 30.7 µg/mL)
[2]; VRSA 12, read-out: MIC
  MIC: 16 µM (≈ 7.67 µg/mL)
[2]; VRSA 13, read-out: MBC
  MBC: 64 µM (≈ 30.7 µg/mL)
[2]; VRSA 13, read-out: MIC
  MIC: 16 µM (≈ 7.67 µg/mL)
Bacillus anthracis; Bacillus anthracis AMES35
  MBC: 4 µM (≈ 1.92 µg/mL)
  MIC: 4 µM (≈ 1.92 µg/mL)
Bacillus anthracis; Bacillus anthracis UM23
  MBC: 4 µM (≈ 1.92 µg/mL)
  MIC: 4 µM (≈ 1.92 µg/mL)
Bacillus anthracis; Bacillus anthracis Weybridge
  MBC: 4 µM (≈ 1.92 µg/mL)
  MIC: 4 µM (≈ 1.92 µg/mL)
B. cereus; B. cereus BAG1O-2 NR-28582
  MBC: 8 µM (≈ 3.84 µg/mL)
  MIC: 8 µM (≈ 3.84 µg/mL)
B. cereus; B. cereus BAG1X1-1 NR-28575
  MBC: 8 µM (≈ 3.84 µg/mL)
  MIC: 8 µM (≈ 3.84 µg/mL)
B. cereus; B. cereus BAG1X2-1 NR-28578
  MBC: 8 µM (≈ 3.84 µg/mL)
  MIC: 8 µM (≈ 3.84 µg/mL)
B. cereus; B. cereus G9241 NR-9564
  MBC: 16 µM (≈ 7.67 µg/mL)
  MIC: 16 µM (≈ 7.67 µg/mL)
B. cereus; B. cereus VD014 NR-22141
  MBC: 8 µM (≈ 3.84 µg/mL)
  MIC: 8 µM (≈ 3.84 µg/mL)
B. cereus; B. cereus VD115 NR-22148
  MBC: 8 µM (≈ 3.84 µg/mL)
  MIC: 8 µM (≈ 3.84 µg/mL)
B. cereus; B. cereus VD148 NR-22150
  MBC: 8 µM (≈ 3.84 µg/mL)
  MIC: 8 µM (≈ 3.84 µg/mL)
B. cereus; [9]
  MBC: > 64 µM
  MIC: 8 µM (≈ 3.84 µg/mL)
B. licheniformis; [10]
  MBC: 16 µM (≈ 7.67 µg/mL)
  MIC: 16 µM (≈ 7.67 µg/mL)
B. licheniformis; [11]
  MBC: 16 µM (≈ 7.67 µg/mL)
  MIC: 16 µM (≈ 7.67 µg/mL)
Mycobacterium smegmatis; read-out: MBC
  MBC: > 64 µM
Mycobacterium smegmatis; read-out: MIC
  MIC: 32 µM (≈ 15.3 µg/mL)
Acinetobacter baumannii [3]; ATCC13345
  MIC: > 128 µM
Acinetobacter baumannii [3]; ATCC17786
  MIC: > 128 µM
Escherichia coli O157:H7 [4]; Escherichia coli O157:H7 ATCC 35150, colistin (+) […], read-out: MIC
  MIC: >64 µM
Escherichia coli O157:H7 [4]; Escherichia coli O157:H7 ATCC 700728, colistin (+) […], read-out: MIC
  MIC: >64 µM
Escherichia coli O157:H7 [4]; Escherichia coli, ATCC35150
  MIC: > 128 µM
Escherichia coli O157:H7 [4]; Escherichia coli, ATCC700728
  MIC: > 128 µM
Salmonella Typhimurium [5]; Salmonella Typhimurium ATCC 700720, colistin (+) […], read-out: MIC
  MIC: >64 µM
Salmonella Typhimurium [5]; [12]
  MIC: > 128 µM
Klebsiella pneumoniae; Klebsiella pneumoniae ATCC BAA 2146, colistin (+) […]
  MIC: >64 µM
Klebsiella pneumoniae; Klebsiella pneumoniae, BAA2146
  MIC: > 128 µM
Pseudomonas aeruginosa; Pseudomonas aeruginosa ATCC 921, colistin (+) […], read-out: MIC
  MIC: >64 µM
Pseudomonas aeruginosa; Pseudomonas aeruginosa, ATCC921
  MIC: > 128 µM
Acinetobacter baumannii [6]; Acinetobacter baumannii ATCC BAA747, PMBN (+) 4 μg/mL, read-out: MIC
  MIC: >64 µM
Acinetobacter baumannii [6]; Acinetobacter baumannii ATCC BAA19606, PMBN (+) 4 μg/mL, read-out: MIC
  MIC: >64 µM
Acinetobacter baumannii [6]; Acinetobacter baumannii, ATCCBAA747
  MIC: > 128 µM
Acinetobacter baumannii [6]; Acinetobacter baumannii, ATCCBAA19606
  MIC: > 128 µM
Escherichia coli O157:H7 [7]; Escherichia coli O157:H7 ATCC 35150, PMBN (+) 4 μg/mL, read-out: MIC
  MIC: 8 µM (≈ 3.84 µg/mL)
Escherichia coli O157:H7 [7]; Escherichia coli O157:H7 ATCC 700728, PMBN (+) 4 μg/mL, read-out: MIC
  MIC: >64 µM
Escherichia coli O157:H7 [7]; Escherichia coli, ATCC35150
  MIC: > 256 µM
Escherichia coli O157:H7 [7]; Escherichia coli, ATCC700728
  MIC: > 128 µM
Salmonella Typhimurium [8]; Salmonella Typhimurium ATCC 700720, PMBN (+) 4 μg/mL, read-out: MIC
  MIC: >128 µM
Salmonella Typhimurium [8]; [12]
  MIC: > 128 µM
Escherichia coli Δ acrAB; E.coli 1411
  MIC: > 64 µM
Escherichia coli Δ acrAB; E.coli 1411 SM (Δ acrAB, AcrAB efflux pump deficient)
  MIC: > 64 µM
